Experimental data reported in patent US6177438A, “Morphinan derivatives and pharmaceutical use thereof” (priority 1993, dated 2001).
pEC50, pIC50: −log10 of the molar value.

Legend:
[1] = test system: extracted guinea pig ileum preparation; experiment: Opioid activity test using an extracted guinea pig ileum preparation (suppression of electrically induced contractions); parameters: species or system male Hartley guinea pig; conditions: Cavia porcellus, electrical stimulus 0.1 Hz, 37° C.
Protocol: (§1) A male Hartley guinea pig was used in this test. After sacrificing the guinea pig and extracting the ileum, the lumen was washed with nutrient solution and only the longitudinal muscle was isolated. This longitudinal muscle was suspended in a Magnus tube filled with Krebes-Henseleit solution (NaCl 118 mM; KCl 4.7 mM; CaCl2 2.5 mM; KH2 PO4 1.2 mM; NaHCO3 25 mM; MgSO4 1.2 mM; Glucose 10 mM) warmed to 37° C. and ventilated with 5% carbon dioxide and 95% oxygen. Electrical stimulus was performed at 0.1 Hz for 5.0 ms by means of ring-shaped platinum electrodes located above and below. Tissue contractions were recorded on a polygraph using an isometric transducer.
(§2) After adequately washing with nutrient solution and the contraction reaction stabilized, the μ agonist, naloxone, or the κ agonist, norBNI, was added after which the test compound was again cumulatively added after roughly 20 minutes. The Ke value was calculated using the following calculation formula from the difference in the efficacies of both agonists.

μ receptor [2] = experiment: Opioid activity test using an extracted guinea pig ileum preparation, Ke with naloxone; parameters: species or system male Hartley guinea pig; conditions: naloxone added
Protocol: as §1, §2
(§3) Ke=[Conc. of added agonist]/(IC50 ratio-1)
(§4) IC50 ratio=IC50 in the presence of agonist/IC50 in the absence of agonist

κ receptor [3] = target: T1, κ receptor (Cavia porcellus, UniProt P41144); experiment: Opioid activity test using an extracted guinea pig ileum preparation, Ke with norBNI; parameters: species or system male Hartley guinea pig; conditions: norBNI added
T1 construct: After sacrificing the guinea pig and extracting the ileum; from tissue; host or cells: guinea pig (male Hartley) ileum, longitudinal muscle
Protocol: as §1, §2, §3, §4

[4] = test system: extracted mouse vas deferens preparation; experiment: Opioid activity test using an extracted mouse vas deferens preparation (suppression of electrically induced contractions); parameters: species or system male ddy mouse; conditions: electrical stimulus 0.1 Hz, 37° C.
Procedure, shortened: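 Male ddY mouse vas deferens in Krebs-Henseleit at 37° C, 5% CO2/95% O2, field-stimulated at 0.1 Hz, 5.0 ms; isometric contractions recorded. After adding naloxone, NTI or norBNI, test compound was added cumulatively after ~20 min; Ke derived from the difference in agonist efficacies.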

μ receptor [5] = target: T2, μ receptor (Mus musculus, UniProt P42866); experiment: Opioid activity test using an extracted mouse vas deferens preparation, Ke with naloxone; parameters: species or system male ddy mouse; conditions: naloxone added
T2 construct: naloxone as mu antagonist (printed 'agonist')

δ receptor = target: T3, δ receptor (Mus musculus, UniProt P32300); parameters: species or system male ddy mouse; conditions: mouse vas deferens, δ, NTI added
T3 construct: The vas deferens extracted from the animal was suspended in a Magnus tube; from tissue; host or cells: mouse (male ddy) vas deferens

κ receptor [6] = target: T4, κ receptor (Mus musculus, UniProt P33534); experiment: Opioid activity test using an extracted mouse vas deferens preparation, Ke with norBNI; parameters: species or system male ddy mouse; conditions: for receptor selectivity of agonist (κ): in words; for Ke, norBNI: κ, norBNI added
T4 construct: from tissue; host or cells: mouse (male ddy) vas deferens

[7] = test system: acetic acid-induced writhing in ddy mice; experiment: animal or person; assay type: in vivo, 5 week old ddy mice; conditions: Mus musculus, sc, s.c. 15 minutes before acetic acid, read-out: ED50
Protocol: 5 week old ddy mice were used in this test. After intraperitoneal administration of 0.1 ml of 0.6% aqueous acetic acid per 10 g of body weight, the number of writhing reactions that occurred in 10 minutes starting 10 minutes after administration was evaluated for the indicator. The test drug was administered subcutaneously into the backs of the animals 15 minutes before administration of acetic acid.

[8] = Diuretic action (urine output for 5 hours after physiological saline loading in rats); assay type: in vivo, male Wistar rats; conditions: Rattus norvegicus, sc, 5 hours after saline 20 ml/kg p.o.; for ED (200% urine output): dose giving urine output of 200 (non-dosed group = 100); for ED (500% urine output): dose giving urine output of 500 (non-dosed group = 100)
Procedure, shortened: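 Doses reported as ED200/ED500, i.e. those raising 5 h urine output to 200 or 500 versus undosed rats set at 100. Subcutaneous dosing preceded an oral 20 ml/kg saline load by 30 min; male Wistar rats, 7-8 weeks, deprived of water 1 h beforehand.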

[9] = test system: cultured nerve cells (cerebral cortex); conditions: 10 mM glutamic acid, 24 hours
[10] = test system: cultured nerve cells (cerebral cortex); experiment: cells; conditions: Rattus norvegicus, Cerebral cortex neuron, 24 h, read-out: ED50 (protection against glutamic acid toxicity)
[11] = test system: guinea pig respiratory tract; experiment: Antitussive action using the guinea pig respiratory tract stimulation method; assay type: in vivo, male Hartley guinea pigs; conditions: for No. of Animals in which Coughing was Suppressed/No. of Animals Tested: s.c.
Protocol: Evaluation of Antitussive Action Using the Guinea Pig Respiratory Tract Stimulation Method
Male Hartley guinea pigs having body weights of 330-380 g were used in this test in groups of 5 animals each. The animals were immobilized in the supine position under mild anesthesia by intraperitoneal administration of 15 mg/kg of sodium pentobarbital. An incision was made in the necks of the animals to expose the respiratory tract. A small hole was opened in the exposed respiratory tract, and stimulating hairs were inserted to a depth of roughly 3 cm and at an angle of 30 degrees to the respiratory tract through the opened hole to provide a stimulus to the inner wall of the respiratory tract. The animals were then examined for the presence of coughing. […] The test drug was administered subcutaneously, and stimuli were provided two times each 15, 30, 60 and 120 minutes after administration.

[12] = test system: nerve cells in the region of the hippocampus CA1; experiment: Delayed neuronal death protective action (gerbil transient ischemia model, hippocampus CA1 nerve cell count); assay type: in vivo, gerbils; conditions: s.c.; for No. of Residual Nerve Cells: 1 hour before ischemia, 1 week after ligation
Protocol: Those compounds that provide protection from and suppress delayed neuronal death described in Example 238 are considered to be promising as preventive and therapeutic agents for ischemic brain disorders, brain nerve cell disorders and dementia, which are problems that the present invention is attempting to solve. The pharmacological activity of the compounds of the present invention was evaluated in the manner below using gerbils for the animal model.
A midline incision was made in gerbils having body weights of 50-70 g under ether anesthesia. Blood flow through the carotid arteries on both sides was interrupted to create an ischemic state by ligating the vessels for 5 minutes. The test compound was administered subcutaneously either 30 minutes or 1 hour prior to ligation ischemia, and the rectal temperature of the animals was controlled to 37±2° C. using a heating pad or heater starting 5 minutes before to 30 minutes after ligation ischemia. 1 week after ligation, 4% neutral buffered formalin was perfused from the heart throughout the body followed by extraction of the brain. After post-fixing the extracted brain in the same solution, the tissue was prepared into sections after embedding in paraffin. The sections were stained with hematoxylin and eosin stain, and the number of nerve cells in the region of the hippocampus CA1 over a width of 1 mm to the left and right was counted. The total number of nerve cells on the right and left sides was then used for evaluation.

T4 sequence (P33534 whole entry): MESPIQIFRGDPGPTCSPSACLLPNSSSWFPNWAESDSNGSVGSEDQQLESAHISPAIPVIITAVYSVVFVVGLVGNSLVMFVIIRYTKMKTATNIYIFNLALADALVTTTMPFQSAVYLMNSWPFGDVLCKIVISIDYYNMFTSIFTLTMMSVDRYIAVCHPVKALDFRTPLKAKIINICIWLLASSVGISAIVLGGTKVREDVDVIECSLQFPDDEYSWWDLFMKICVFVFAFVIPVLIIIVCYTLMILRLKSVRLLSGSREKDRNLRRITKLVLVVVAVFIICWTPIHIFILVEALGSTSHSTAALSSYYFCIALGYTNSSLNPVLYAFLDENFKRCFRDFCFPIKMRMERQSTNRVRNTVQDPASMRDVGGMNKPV
T3 sequence (P32300 whole entry): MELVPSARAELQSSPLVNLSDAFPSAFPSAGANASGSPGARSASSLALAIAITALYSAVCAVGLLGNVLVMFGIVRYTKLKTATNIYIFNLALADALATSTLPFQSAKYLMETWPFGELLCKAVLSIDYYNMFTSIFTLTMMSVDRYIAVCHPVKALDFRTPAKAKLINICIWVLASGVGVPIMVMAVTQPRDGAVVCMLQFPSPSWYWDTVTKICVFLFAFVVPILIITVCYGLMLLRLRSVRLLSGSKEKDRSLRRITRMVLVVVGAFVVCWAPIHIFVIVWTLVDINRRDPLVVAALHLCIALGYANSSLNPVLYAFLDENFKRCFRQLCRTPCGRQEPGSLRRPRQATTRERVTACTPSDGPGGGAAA
T2 sequence (P42866 whole entry): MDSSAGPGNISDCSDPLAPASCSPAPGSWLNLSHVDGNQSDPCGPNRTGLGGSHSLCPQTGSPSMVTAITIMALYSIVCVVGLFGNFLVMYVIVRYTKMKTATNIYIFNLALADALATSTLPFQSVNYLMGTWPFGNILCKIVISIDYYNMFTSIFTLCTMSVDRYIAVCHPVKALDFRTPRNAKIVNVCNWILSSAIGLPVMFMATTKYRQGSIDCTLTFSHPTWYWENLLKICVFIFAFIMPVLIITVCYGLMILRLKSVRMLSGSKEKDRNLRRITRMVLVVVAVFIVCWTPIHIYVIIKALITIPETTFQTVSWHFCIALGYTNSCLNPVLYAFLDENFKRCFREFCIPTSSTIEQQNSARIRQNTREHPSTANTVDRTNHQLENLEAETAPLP
T1 sequence (P41144 whole entry): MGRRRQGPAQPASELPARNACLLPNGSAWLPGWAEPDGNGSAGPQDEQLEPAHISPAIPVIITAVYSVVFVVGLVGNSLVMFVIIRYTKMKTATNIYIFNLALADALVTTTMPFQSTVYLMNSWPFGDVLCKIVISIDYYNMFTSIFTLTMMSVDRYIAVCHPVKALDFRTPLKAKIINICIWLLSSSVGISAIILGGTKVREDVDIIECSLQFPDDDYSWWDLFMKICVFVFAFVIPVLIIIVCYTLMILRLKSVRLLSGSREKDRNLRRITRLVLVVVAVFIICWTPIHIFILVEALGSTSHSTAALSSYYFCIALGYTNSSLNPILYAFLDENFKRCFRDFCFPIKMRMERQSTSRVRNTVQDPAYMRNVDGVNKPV

Compound	pIC50 [4]	Ke, NTI (δ receptor) [nM]	receptor selectivity of agonist (κ) (κ receptor [6])	Ke, norBNI (κ receptor [6]) [nM]	ED50 [7] [mg/kg]	ED (200% urine output) [8] [mg/kg]	ED (500% urine output) [8] [mg/kg]	Protective action against cytotoxicity caused by glutamic acid (in words) [9]	pEC50 [10]	further results
CN(C(=O)Cc1ccc(Cl)c(Cl)c1)[C@H]1CC[C@@]2(O)[C@H]3Cc4ccc(O)c5c4[C@@]2(CCN3CC2CC2)[C@H]1O5 [Compound 1, 17-cyclopropylmethyl-4,5α-epoxy-3,14β-dihydroxy-6α-(N-methyl-3,4-dichlorophenylacetamido)morphinan]	9.40	17.3	selective agonists for κ receptors	0.548	0.017	0.0027	0.0457	clearly demonstrated action that protects nerve cells from cytotoxicity caused by glutamic acid	6.30	pIC50 [1]: 10.59; Ke, Naloxone (μ receptor [2]): 650 nM; Ke, norBNI (κ receptor [3]): 0.16 nM; Ke, Naloxone (μ receptor [5]): 53 nM
CN(C(=O)/C=C/c1cccc(C(F)(F)F)c1)[C@@H]1CC[C@@]2(O)[C@H]3Cc4ccc(O)c5c4[C@@]2(CCN3CC2CC2)[C@H]1O5 [Compound 60, 17-cyclopropylmethyl-3,14β-dihydroxy-4,5α-epoxy-6β-(N-methyl-3-trifluoromethylcinnamamido)morphinan.cndot.tartrate]	9.33	291	selective agonists for κ receptors	3.20	0.0046	0.0143	1.13	clearly demonstrated action that protects nerve cells from cytotoxicity caused by glutamic acid	5.88	ED50 ([11]; Cavia porcellus, sc): 0.0026 mg/kg; No. of Animals in which Coughing was Suppressed/No. of Animals Tested ([11]; 1 μg/kg): 1/5; No. of Animals in which Coughing was Suppressed/No. of Animals Tested ([11]; 3 μg/kg): 3/5; No. of Animals in which Coughing was Suppressed/No. of Animals Tested ([11]; 30 μg/kg): 5/5; No. of Residual Nerve Cells ([12]; 0.03 mg/kg): 52.1 ± 14.8; No. of Residual Nerve Cells ([12]; 0.3 mg/kg): 148.3 ± 28.5; No. of Residual Nerve Cells ([12]; 3 mg/kg): 284.5 ± 7.1; Suppression of defluxion of brain nerve cells caused by ischemia / cerebro-neuroprotective activity (in words) ([12]; gerbils): significantly suppress defluxion of brain nerve cells caused by ischemia
